Structures can show the parent of a compound that is named as a salt.
target: GST tagged IRAK4 (Homo sapiens (Human), UniProt Q9NWZ3); assay: IRAK4 Kinase Assay (IMAP fluorescence polarization); type: biochemical; settings: 0.5 nM GST tagged IRAK4, 100 μM ATP, 30 minutes at 25° C.
Method: The kinase activity of IRAK4 is determined by its ability to catalyze the phosphorylation of a fluorescent polypeptide substrate. The extent of phosphorylation is measured using the IMAP technology (Molecular Devices) where the phosphorylated fluorescent substrate binds to the large M(III)-based nanoparticles which reduces the rotational speed of the substrate and thus increases its fluorescent polarization (FP).
20 μL reaction mixture contains 10 mM TriHCl, pH 7.2, 0.5 nM GST tagged IRAK4 (SignalChem), 100 nM fluorescent peptide substrate (RP7030, Molecular Devices), 100 μM ATP, 1 mM DDT, 1 mM MgCl2, and 0.01% Tween 20. The reaction is initiated by the addition of ATP. After incubation for 30 minutes at 25° C., 60 μL of Progressive IMAP Reagent (Molecular Devices) is added to stop the reaction. Change in RP7030's FP is determined by a FP reader (Analyst HT, LJL BioSystems).

GST tagged IRAK4, sequence (Q9NWZ3 whole entry): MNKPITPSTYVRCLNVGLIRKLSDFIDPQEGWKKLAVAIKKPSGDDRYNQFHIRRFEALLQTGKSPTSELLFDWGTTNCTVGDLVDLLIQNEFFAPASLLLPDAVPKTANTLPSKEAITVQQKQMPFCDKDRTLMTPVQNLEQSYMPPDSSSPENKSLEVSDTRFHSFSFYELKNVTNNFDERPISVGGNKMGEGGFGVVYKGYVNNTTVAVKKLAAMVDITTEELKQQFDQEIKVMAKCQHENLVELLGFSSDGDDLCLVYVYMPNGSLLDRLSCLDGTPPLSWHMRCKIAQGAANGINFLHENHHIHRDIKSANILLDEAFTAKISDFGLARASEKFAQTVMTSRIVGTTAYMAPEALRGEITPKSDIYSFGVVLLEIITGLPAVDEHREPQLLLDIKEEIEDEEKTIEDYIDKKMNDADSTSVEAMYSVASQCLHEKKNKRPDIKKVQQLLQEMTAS

Row | IC50 | Compound
1 | 46 nM | Cn1cc(NC(=O)c2ccc3cnc(N[C@H]4CCC(F)(F)C[C@H]4N)nn23)c(C(F)(F)F)n1 (single isomer, unassigned) [Example 128, 2-{[(1S,2R)- or (1R,2S)-2-amino-4,4-difluorocyclohexyl]amino}-N-[1-methyl-3-(trifluoromethyl)-1H-pyrazol-4-yl]pyrrolo[2,1-f][1,2,4]triazine-7-carboxamide trifluoroacetate]
2 | 3650 nM | Cn1cc(NC(=O)c2ccc3cnc(N[C@H]4CCC(F)(F)C[C@H]4N)nn23)c(C(F)F)n1 (single isomer, unassigned) [Example 129, 2-{[(1S,2R)- or (1R,2S)-2-amino-4,4-difluorocyclohexyl]amino}-N-[3-(difluoromethyl)-1-methyl-1H-pyrazol-4-yl]pyrrolo[2,1-f][1,2,4]triazine-7-carboxamide]
3 | 668 nM | Cn1cc(NC(=O)c2ccc3cnc(N[C@H]4CC(F)(F)CC[C@H]4N)nn23)c(C(F)F)n1 (single isomer, unassigned) [Example 130, 2-{[(1S,2R)- or (1R,2S)-2-amino-5,5-difluorocyclohexyl]amino}-N-[3-(difluoromethyl)-1-methyl-1H-pyrazol-4-yl]pyrrolo[2,1-f][1,2,4]triazine-7-carboxamide]
4 | 4 nM | Cn1cc(NC(=O)c2ccc3cnc(N[C@@H]4CC(F)(F)CC[C@@H]4N)nn23)c(C(F)(F)F)n1 (single isomer, unassigned) [Example 131, 2-{[(1S,2R)- or (1R,2S)-2-amino-5,5-difluorocyclohexyl]amino}-N-[1-methyl-3-(trifluoromethyl)-1H-pyrazol-4-yl]pyrrolo[2,1-f][1,2,4]triazine-7-carboxamide trifluoroacetate]
5 | 655 nM | Cn1cc(NC(=O)c2ccc3cnc(N[C@@H]4CCC(F)(F)C[C@@H]4N)nn23)c(C(F)(F)F)n1 (single isomer, unassigned) [Example 132, 2-{[(1S,2R)- or (1R,2S)-2-amino-4,4-difluorocyclohexyl]amino}-N-[1-methyl-3-(trifluoromethyl)-1H-pyrazol-4-yl]pyrrolo[2,1-f][1,2,4]triazine-7-carboxamide trifluoroacetate]
6 | 174 nM | Cn1cc(NC(=O)c2ccc3cnc(N4C[C@H]5CNC[C@@H]4C5)nn23)c(C#N)n1 (single isomer, unassigned) [Example 134, N-(3-cyano-1-methyl-1H-pyrazol-4-yl)-2-[(1R,5S)- or (1S,5R)-3,6-diazabicyclo[3.2.1]oct-6-yl]pyrrolo[2,1-f][1,2,4]triazine-7-carboxamide]
7 | 867 nM | Cn1cc(NC(=O)c2ccc3cnc(N4C[C@@H]5CNC[C@H]4C5)nn23)c(C#N)n1 (single isomer, unassigned) [Example 135, N-(3-cyano-1-methyl-1H-pyrazol-4-yl)-2-[(1R,5S)- or (1S,5R)-3,6-diazabicyclo[3.2.1]oct-6-yl]pyrrolo[2,1-f][1,2,4]triazine-7-carboxamide]
8 | 3 nM | Cn1cc(NC(=O)c2ccc3cnc(N[C@@H]4CCC(F)(F)C[C@@H]4N)nn23)c(C(F)F)n1 (single isomer, unassigned) [Example 139, 2-{[(1S,2R)- or (1R,2S)-2-amino-4,4-difluorocyclohexyl]amino}-N-[3-(difluoromethyl)-1-methyl-1H-pyrazol-4-yl]pyrrolo[2,1-f][1,2,4]triazine-7-carboxamide]
9 | 3 nM | Cn1cc(NC(=O)c2ccc3cnc(N[C@@H]4CC(F)(F)CC[C@@H]4N)nn23)c(C(F)F)n1 (single isomer, unassigned) [Example 140, 2-{[(1S,2R)- or (1R,2S)-2-amino-5,5-difluorocyclohexyl]amino}-N-[3-(difluoromethyl)-1-methyl-1H-pyrazol-4-yl]pyrrolo[2,1-f][1,2,4]triazine-7-carboxamide]
10 | 35 nM | Cn1cc(NC(=O)c2ccc3cnc(N4C[C@@H]5CC[C@H]4CN5)nn23)c(C(F)(F)F)n1 (single isomer, unassigned) [Example 170, 2-[(1S,4S)- or (1R,4R)-2,5-diazabicyclo[2.2.2]oct-2-yl]-N-[1-methyl-3-(trifluoromethyl)-1H-pyrazol-4-yl]pyrrolo[2,1-f][1,2,4]triazine-7-carboxamide]
11 | 64 nM | Cn1cc(NC(=O)c2ccc3cnc(N4C[C@H]5CC[C@@H]4CN5)nn23)c(C(F)(F)F)n1 (single isomer, unassigned) [Example 171, 2-[(1S,4S)- or (1R,4R)-2,5-diazabicyclo[2.2.2]oct-2-yl]-N-[1-methyl-3-(trifluoromethyl)-1H-pyrazol-4-yl]pyrrolo[2,1-f][1,2,4]triazine-7-carboxamide]
12 | 0.5 nM | Cn1cc(NC(=O)c2ccc3cnc(N[C@@H]4CCCC[C@@H]4N)nn23)c(C(F)F)n1 [Example 1, 2-{[(1R,2S)-2-Aminocyclohexyl]amino}-N-[3-(difluoromethyl)-1-methyl-1H-pyrazol-4-yl]pyrrolo[2,1-f][1,2,4]triazine-7-carboxamide]
13 | 2 nM | Cn1cc(NC(=O)c2ccc3cnc(N[C@@H]4CCCC[C@@H]4N)nn23)c(C(F)(F)F)n1 [Example 2, 2-{[(1R,2S)-2-aminocyclohexyl]amino}-N-[1-methyl-3-(trifluoromethyl)-1H-pyrazol-4-yl]pyrrolo[2,1-f][1,2,4]triazine-7-carboxamide trifluoroacetate]
14 | 322 nM | Cn1cc(NC(=O)c2ccc3cnc(N[C@@H]4CCCC[C@@H]4O)nn23)c(C(F)(F)F)n1 [Example 3, 2-{[(1R,2S)-2-hydroxycyclohexyl]amino}-N-[1-methyl-3-(trifluoromethyl)-1H-pyrazol-4-yl]pyrrolo[2,1-f][1,2,4]triazine-7-carboxamide trifluoroacetate]
15 | 73 nM | Cn1cc(NC(=O)c2ccc3cnc(N4CCNCC4)nn23)c(C(F)(F)F)n1 [Example 4, N-[1-methyl-3-(trifluoromethyl)-1H-pyrazol-4-yl]-2-piperazin-1-ylpyrrolo[2,1-f][1,2,4]triazine-7-carboxamide trifluoroacetate]
16 | 2 nM | Cn1cc(NC(=O)c2ccc3cnc(N[C@@H]4CCCNC4)nn23)c(C(F)(F)F)n1 [Example 5, N-[1-methyl-3-(trifluoromethyl)-1H-pyrazol-4-yl]-2-[(3R)-piperidin-3-ylamino]pyrrolo[2,1-f][1,2,4]triazine-7-carboxamide trifluoroacetate]
17 | 94 nM | Cn1cc(NC(=O)c2ccc3cnc(N4CCCNCC4)nn23)c(C(F)(F)F)n1 [Example 6, 2-(1,4-diazepan-1-yl)-N-[1-methyl-3-(trifluoromethyl)-1H-pyrazol-4-yl]pyrrolo[2,1-f][1,2,4]triazine-7-carboxamide trifluoroacetate]
18 | 0.9 nM | Cn1cc(NC(=O)c2ccc3cnc(N4CCC[C@@H](N)C4)nn23)c(C(F)(F)F)n1 [Example 7, 2-[(3R)-3-aminopiperidin-1-yl]-N-[1-methyl-3-(trifluoromethyl)-1H-pyrazol-4-yl]pyrrolo[2,1-f][1,2,4]triazine-7-carboxamide trifluoroacetate]
19 | 276 nM | Cn1cc(NC(=O)c2ccc3cnc(N[C@@H]4CCCC(F)(F)[C@@H]4N)nn23)c(C(F)(F)F)n1 [Example 8, 2-{[(1R,2R)-2-amino-3,3-difluorocyclohexyl]amino}-N-[1-methyl-3-(trifluoromethyl)-1H-pyrazol-4-yl]pyrrolo[2,1-f][1,2,4]triazine-7-carboxamide trifluoroacetate]
20 | 7 nM | Cn1cc(NC(=O)c2ccc3cnc(N4CCNCC5(CC5)C4)nn23)c(C(F)(F)F)n1 [Example 9, 2-(5,8-diazaspiro[2.6]non-5-yl)-N-[1-methyl-3-(trifluoromethyl)-1H-pyrazol-4-yl]pyrrolo[2,1-f][1,2,4]triazine-7-carboxamide trifluoroacetate]
21 | 4 nM | Cn1cc(NC(=O)c2ccc3cnc(NC4CCCCNC4)nn23)c(C(F)(F)F)n1 (centres unmarked) [Example 10, 2-(azepan-3-ylamino)-N-[1-methyl-3-(trifluoromethyl)-1H-pyrazol-4-yl]pyrrolo[2,1-f][1,2,4]triazine-7-carboxamide trifluoroacetate]
22 | 3 nM | Cn1cc(NC(=O)c2ccc3cnc(N4CCNCC4)nn23)c(C(F)F)n1 [Example 11, N-[3-(difluoromethyl)-1-methyl-1H-pyrazol-4-yl]-2-piperazin-1-ylpyrrolo[2,1-f][1,2,4]triazine-7-carboxamide trifluoroacetate]
23 | 365 nM | N#Cc1cscc1NC(=O)c1ccc2cnc(N3CCCNCC3)nn12 [Example 12, N-(4-cyanothiophen-3-yl)-2-(1,4-diazepan-1-yl)pyrrolo[2,1-f][1,2,4]triazine-7-carboxamide trifluoroacetate]
24 | 4 nM | N#Cc1cscc1NC(=O)c1ccc2cnc(N[C@@H]3CCCC[C@@H]3N)nn12 [Example 13, 2-{[(1R,2S)-2-aminocyclohexyl]amino}-N-(4-cyanothiophen-3-yl)pyrrolo[2,1-f][1,2,4]triazine-7-carboxamide trifluoroacetate]
25 | 6 nM | N[C@H]1CCCC[C@H]1Nc1ncc2ccc(C(=O)Nc3cscc3Br)n2n1 [Example 14, 2-{[(1R,2S)-2-aminocyclohexyl]amino}-N-(4-bromothiophen-3-yl)pyrrolo[2,1-f][1,2,4]triazine-7-carboxamide trifluoroacetate]
26 | 6 nM | Cn1cc(NC(=O)c2ccc3cnc(N4CCCNCC4)nn23)c(C(F)F)n1 [Example 15, 2-(1,4-diazepan-1-yl)-N-[3-(difluoromethyl)-1-methyl-1H-pyrazol-4-yl]pyrrolo[2,1-f][1,2,4]triazine-7-carboxamide trifluoroacetate]

Reference: US10329295B2, “Pyrrolotriazine inhibitors of IRAK4 activity” (MERCK SHARP & DOHME CORP., priority 2015, dated 2019)
